Data from PubChem BioAssay AID1963961 (Molecular Pharmacology Branch, DTP, NCI, 2024).
Several values for one entry are separate records, joined by “and”; a condition that tells them apart may be missing. Equal values may be shown once.

Test system: K98450-129-R-PDC multicell spheroids, viability
Assay: Anticancer human tumor K98450-129-R-PDC patient-derived colon adenocarcinoma cell line growth inhibition [PI3K]
Conditions: for viability, T/C: stronger effect = lower value
In short: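 We assembled tumor spheroids that included a stromal compartment of HUVEC and MSCs, then exposed them to targeted agents alone and together with PI3K pathway inhibitors. Concentration series descended by half-log from clinically achievable Cmax levels. Viability served as the endpoint.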

[1] = curve of first compound, second compound 0.0316 µM
[2] = curve of first compound, second compound 0.1 µM
[3] = curve of first compound, second compound 0.316 µM
[4] = curve of first compound, second compound 1 µM
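Also: spheroids exposed to agents for seven days before read-out.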

Question: `Cn1ncnc1[C@H]1c2n[nH]c(=O)c3cc(F)cc(c23)N[C@@H]1c1ccc(F)cc1` + Cc1nc(NC(=O)N2CCCC2C(N)=O)sc1-c1ccnc(C(C)(C)C(F)(F)F)c1 was tested. Which IC50 [1] did it give?
Answer: > 100 nM

Question: What about the IC50 [2] of the same compound?
Answer: > 100 nM

Question: And the IC50 [3]?
Answer: > 100 nM

Question: What about the IC50 [4] of the same compound?
Answer: > 100 nM

Question: What about the IC50 (curve of first compound, second compound 3.16 µM) of the same compound?
Answer: > 100 nM

Question: And the IC50 (curve of first compound, second compound 10 µM)?
Answer: > 100 nM

Question: What about the viability, T/C (second compound 0.0316 µM, first compound 0.000316 µM) of the same compound?
Answer: 110%

Question: What about the viability, T/C (second compound 0.0316 µM, first compound 0.001 µM) of the same compound?
Answer: 108%

Question: And the viability, T/C (second compound 0.0316 µM, first compound 0.00316 µM)?
Answer: 109%

Question: And the viability, T/C (second compound 0.0316 µM, first compound 0.01 µM)?
Answer: 97.3%

Question: And the viability, T/C (second compound 0.0316 µM, first compound 0.0316 µM)?
Answer: 101%

Question: And the viability, T/C (second compound 0.0316 µM, first compound 0.1 µM)?
Answer: 96.3%

Question: And the viability, T/C (second compound 0.1 µM, first compound 0.000316 µM)?
Answer: 108%

Question: What about the viability, T/C (second compound 0.1 µM, first compound 0.001 µM) of the same compound?
Answer: 99.2%

Question: What about the viability, T/C (second compound 0.1 µM, first compound 0.00316 µM) of the same compound?
Answer: 106%

Question: What about the viability, T/C (second compound 0.1 µM, first compound 0.01 µM) of the same compound?
Answer: 100%

Question: What about the viability, T/C (second compound 0.1 µM, first compound 0.0316 µM) of the same compound?
Answer: 102%

Question: What about the viability, T/C (second compound 0.1 µM, first compound 0.1 µM) of the same compound?
Answer: 97.6%

Question: What about the viability, T/C (second compound 0.316 µM, first compound 0.000316 µM) of the same compound?
Answer: 96.5%

Question: And the viability, T/C (second compound 0.316 µM, first compound 0.001 µM)?
Answer: 99%

Question: And the viability, T/C (second compound 0.316 µM, first compound 0.00316 µM)?
Answer: 99.9%

Question: What about the viability, T/C (second compound 0.316 µM, first compound 0.01 µM) of the same compound?
Answer: 97.8%

Question: What about the viability, T/C (second compound 0.316 µM, first compound 0.0316 µM) of the same compound?
Answer: 104%

Question: What about the viability, T/C (second compound 0.316 µM, first compound 0.1 µM) of the same compound?
Answer: 87.3%

Question: What about the viability, T/C (second compound 1 µM, first compound 0.000316 µM) of the same compound?
Answer: 89.4%

Question: What about the viability, T/C (second compound 1 µM, first compound 0.001 µM) of the same compound?
Answer: 98.1%

Question: What about the viability, T/C (second compound 1 µM, first compound 0.00316 µM) of the same compound?
Answer: 95.2%

Question: What about the viability, T/C (second compound 1 µM, first compound 0.01 µM) of the same compound?
Answer: 90.7%

Question: What about the viability, T/C (second compound 1 µM, first compound 0.0316 µM) of the same compound?
Answer: 101%

Question: And the viability, T/C (second compound 1 µM, first compound 0.1 µM)?
Answer: 91.9%

Question: What about the viability, T/C (second compound 3.16 µM, first compound 0.000316 µM) of the same compound?
Answer: 85%

Question: And the viability, T/C (second compound 3.16 µM, first compound 0.001 µM)?
Answer: 89.4%

Question: What about the viability, T/C (second compound 3.16 µM, first compound 0.00316 µM) of the same compound?
Answer: 86.9%

Question: And the viability, T/C (second compound 3.16 µM, first compound 0.01 µM)?
Answer: 86%

Question: And the viability, T/C (second compound 3.16 µM, first compound 0.0316 µM)?
Answer: 91.6%

Question: And the viability, T/C (second compound 3.16 µM, first compound 0.1 µM)?
Answer: 80.3%

Question: What about the viability, T/C (second compound 10 µM, first compound 0.000316 µM) of the same compound?
Answer: 72.4%

Question: And the viability, T/C (second compound 10 µM, first compound 0.001 µM)?
Answer: 73.1%

Question: What about the viability, T/C (second compound 10 µM, first compound 0.00316 µM) of the same compound?
Answer: 75.7%

Question: What about the viability, T/C (second compound 10 µM, first compound 0.01 µM) of the same compound?
Answer: 71.5%

Question: What about the viability, T/C (second compound 10 µM, first compound 0.0316 µM) of the same compound?
Answer: 74.8%

Question: What about the viability, T/C (second compound 10 µM, first compound 0.1 µM) of the same compound?
Answer: 70.2%

Question: With `COc1c(OCCCN2CCOCC2)ccc2c3n(c(=NC(=O)c4cnc(N)nc4)nc12)CCN3` as the compound, how does the viability, T/C (compound 0.00316 µM) read?
Answer: 97.8% [middle of 8 runs]

Question: And the viability, T/C (compound 0.01 µM)?
Answer: 101% [middle of 8 runs]

Question: And the viability, T/C (compound 0.0316 µM)?
Answer: 97.6% [middle of 8 runs]

Question: And the viability, T/C (compound 0.1 µM)?
Answer: 77.9% [middle of 8 runs]

Question: And the viability, T/C (compound 0.316 µM)?
Answer: 65.8% [middle of 8 runs]

Question: And the viability, T/C (compound 1 µM)?
Answer: 54.2% [middle of 8 runs]

Question: What about the IC50 (compound alone, run of 04/25/2023) of the same compound?
Answer: > 1000 nM

Question: With `C[C@@H](NC(=O)c1ncnc(N)c1Cl)c1ncc(C(=O)Nc2cc(C(F)(F)F)c(Cl)cn2)s1` as the compound, how does the viability, T/C (compound 0.0316 µM) read?
Answer: 108% [middle of 4 runs]

Question: What about the viability, T/C (compound 0.1 µM) of the same compound?
Answer: 110% [middle of 4 runs]

Question: What about the viability, T/C (compound 0.316 µM) of the same compound?
Answer: 119% [middle of 4 runs]

Question: And the viability, T/C (compound 1 µM)?
Answer: 122% [middle of 4 runs]

Question: And the viability, T/C (compound 3.16 µM)?
Answer: 120% [middle of 4 runs]

Question: And the viability, T/C (compound 10 µM)?
Answer: 109% [middle of 4 runs]

Question: What about the IC50 (curve of compound) of the same compound?
Answer: > 10000 nM

Question: With `Cn1cnc2c(F)c(Nc3ccc(Br)cc3Cl)c(C(=O)NOCCO)cc21` + CC(Nc1ccc2c(c1)OCCn1cc(N3C(=O)OCC3C(F)F)nc1-2)C(N)=O as the compound, how does the IC50 (curve of first compound, second compound 0.00316 µM) read?
Answer: 1330 nM

Question: What about the IC50 (curve of first compound, second compound 0.01 µM) of the same compound?
Answer: 1150 nM

Question: What about the IC50 [1] of the same compound?
Answer: 1190 nM

Question: What about the IC50 [2] of the same compound?
Answer: 1240 nM

Question: And the IC50 [3]?
Answer: 857 nM

Question: What about the IC50 [4] of the same compound?
Answer: 605 nM

Question: And the viability, T/C (second compound 0.00316 µM, first compound 0.00949 µM)?
Answer: 105%

Question: What about the viability, T/C (second compound 0.00316 µM, first compound 0.03 µM) of the same compound?
Answer: 86.9%

Question: And the viability, T/C (second compound 0.00316 µM, first compound 0.0949 µM)?
Answer: 95.5%

Question: What about the viability, T/C (second compound 0.00316 µM, first compound 0.3 µM) of the same compound?
Answer: 76.1%

Question: What about the viability, T/C (second compound 0.00316 µM, first compound 0.949 µM) of the same compound?
Answer: 62.1%

Question: What about the viability, T/C (second compound 0.00316 µM, first compound 3 µM) of the same compound?
Answer: 25.7%

Question: What about the viability, T/C (second compound 0.01 µM, first compound 0.00949 µM) of the same compound?
Answer: 102%

Question: What about the viability, T/C (second compound 0.01 µM, first compound 0.03 µM) of the same compound?
Answer: 88.7%

Question: And the viability, T/C (second compound 0.01 µM, first compound 0.0949 µM)?
Answer: 91%

Question: And the viability, T/C (second compound 0.01 µM, first compound 0.3 µM)?
Answer: 75.4%

Question: What about the viability, T/C (second compound 0.01 µM, first compound 0.949 µM) of the same compound?
Answer: 56.3%

Question: What about the viability, T/C (second compound 0.01 µM, first compound 3 µM) of the same compound?
Answer: 21.9%

Question: And the viability, T/C (second compound 0.0316 µM, first compound 0.00949 µM)?
Answer: 99.3%

Question: What about the viability, T/C (second compound 0.0316 µM, first compound 0.03 µM) of the same compound?
Answer: 93.4%

Question: What about the viability, T/C (second compound 0.0316 µM, first compound 0.0949 µM) of the same compound?
Answer: 83%

Question: And the viability, T/C (second compound 0.0316 µM, first compound 0.3 µM)?
Answer: 75.3%

Question: What about the viability, T/C (second compound 0.0316 µM, first compound 0.949 µM) of the same compound?
Answer: 62.1%

Question: What about the viability, T/C (second compound 0.0316 µM, first compound 3 µM) of the same compound?
Answer: 17.7%

Question: And the viability, T/C (second compound 0.1 µM, first compound 0.00949 µM)?
Answer: 89.5%

Question: And the viability, T/C (second compound 0.1 µM, first compound 0.03 µM)?
Answer: 81.8%

Question: What about the viability, T/C (second compound 0.1 µM, first compound 0.0949 µM) of the same compound?
Answer: 85.6%

Question: What about the viability, T/C (second compound 0.1 µM, first compound 0.3 µM) of the same compound?
Answer: 76.5%

Question: What about the viability, T/C (second compound 0.1 µM, first compound 0.949 µM) of the same compound?
Answer: 60.5%

Question: What about the viability, T/C (second compound 0.1 µM, first compound 3 µM) of the same compound?
Answer: 16.7%

Question: And the viability, T/C (second compound 0.316 µM, first compound 0.00949 µM)?
Answer: 83.7%

Question: And the viability, T/C (second compound 0.316 µM, first compound 0.03 µM)?
Answer: 83.5%

Question: And the viability, T/C (second compound 0.316 µM, first compound 0.0949 µM)?
Answer: 82.5%

Question: And the viability, T/C (second compound 0.316 µM, first compound 0.3 µM)?
Answer: 72.2%

Question: And the viability, T/C (second compound 0.316 µM, first compound 0.949 µM)?
Answer: 48%

Question: What about the viability, T/C (second compound 0.316 µM, first compound 3 µM) of the same compound?
Answer: 11.1%

Question: And the viability, T/C (second compound 1 µM, first compound 0.00949 µM)?
Answer: 76.6%

Question: And the viability, T/C (second compound 1 µM, first compound 0.03 µM)?
Answer: 77.5%

Question: And the viability, T/C (second compound 1 µM, first compound 0.0949 µM)?
Answer: 78.2%

Question: And the viability, T/C (second compound 1 µM, first compound 0.3 µM)?
Answer: 66.8%

Question: And the viability, T/C (second compound 1 µM, first compound 0.949 µM)?
Answer: 38.9%

Question: And the viability, T/C (second compound 1 µM, first compound 3 µM)?
Answer: 9.63%

Question: What does the source list for `CC1(C)CCC(CN2CCN(c3ccc(C(=O)NS(=O)(=O)c4ccc(NCC5CCOCC5)c([N+](=O)[O-])c4)c(Oc4cnc5[nH]ccc5c4)c3)CC2)=C(c2ccc(Cl)cc2)C1`?
Answer: viability, T/C (compound 0.0316 µM): 105% [middle of 4 runs]; viability, T/C (compound 0.1 µM): 106% and 102% (2×) and 85.6%; viability, T/C (compound 0.316 µM): 107% [middle of 4 runs]; viability, T/C (compound 1 µM): 104% [middle of 4 runs]; viability, T/C (compound 3.16 µM): 94.5% [middle of 4 runs]

Question: Which results are given for `Cn1nccc1Nc1nccc(-c2ccn(C(CO)c3ccc(Cl)c(F)c3)c(=O)c2)n1` (stereo not given)?
Answer: viability, T/C (compound 0.0316 µM): 105% (2×) and 95% and 106%; viability, T/C (compound 0.1 µM): 101% (2×) and 104% and 81.8%; viability, T/C (compound 0.316 µM): 103% [middle of 4 runs]; viability, T/C (compound 1 µM): 101% [middle of 4 runs]; viability, T/C (compound 3.16 µM): 100% [middle of 4 runs]; viability, T/C (compound 10 µM): 94% [middle of 4 runs]; IC50 (curve of compound): > 10000 nM
